pIC50: −log10 of the molar value. “And” between values parts separate entries of the source, which are not always exact repeats. Equal entries are not always repeated.
How the values were obtained:
PIK3CA (human) = PIK3CA (human) (UniProt P42336); test: Inhibition of PIK3CA Kinase Activity
[1] = biological target: PIK3CA (human), P42336 [Antiproliferation of PI3K Mutated BT20 Cells]; test: Cell-Based Assay
PIK3CA (human), P42336 [Antiproliferation of PI3K Mutated BT20 Cells], sequence (P42336 whole entry, looked up, change not shown): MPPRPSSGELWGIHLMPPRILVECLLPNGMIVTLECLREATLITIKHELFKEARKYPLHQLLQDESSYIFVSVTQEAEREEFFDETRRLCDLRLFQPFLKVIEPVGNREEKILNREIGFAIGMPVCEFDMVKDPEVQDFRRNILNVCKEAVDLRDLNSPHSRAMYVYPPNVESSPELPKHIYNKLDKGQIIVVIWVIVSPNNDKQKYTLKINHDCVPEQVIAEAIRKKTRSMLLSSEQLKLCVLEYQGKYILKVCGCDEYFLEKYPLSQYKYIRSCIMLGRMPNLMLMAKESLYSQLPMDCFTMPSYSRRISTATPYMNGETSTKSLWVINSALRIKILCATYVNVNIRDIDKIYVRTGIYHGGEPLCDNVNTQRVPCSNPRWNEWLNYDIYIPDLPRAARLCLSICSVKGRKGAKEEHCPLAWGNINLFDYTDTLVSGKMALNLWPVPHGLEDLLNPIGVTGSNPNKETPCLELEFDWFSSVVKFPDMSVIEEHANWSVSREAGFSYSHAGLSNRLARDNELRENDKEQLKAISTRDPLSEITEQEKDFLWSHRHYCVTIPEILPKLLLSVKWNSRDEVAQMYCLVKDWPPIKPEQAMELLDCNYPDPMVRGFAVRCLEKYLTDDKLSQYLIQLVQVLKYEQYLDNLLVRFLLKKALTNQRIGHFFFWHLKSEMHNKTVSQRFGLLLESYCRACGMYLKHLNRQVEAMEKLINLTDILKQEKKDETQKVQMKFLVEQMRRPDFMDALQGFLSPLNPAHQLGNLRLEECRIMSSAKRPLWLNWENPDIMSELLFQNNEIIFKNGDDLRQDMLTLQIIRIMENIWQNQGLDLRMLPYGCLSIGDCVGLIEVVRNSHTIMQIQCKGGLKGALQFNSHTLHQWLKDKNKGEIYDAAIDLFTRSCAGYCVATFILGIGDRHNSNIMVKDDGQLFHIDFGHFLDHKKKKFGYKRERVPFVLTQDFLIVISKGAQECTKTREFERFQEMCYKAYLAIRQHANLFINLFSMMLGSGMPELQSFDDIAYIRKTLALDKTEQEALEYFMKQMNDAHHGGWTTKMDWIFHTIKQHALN

PIK3CA (human), sequence (P42336 whole entry, looked up): as the sequence (P42336 whole entry, looked up, change not shown) above

| SMILES | pIC50 (PIK3CA (human)) | pIC50 [1] |
| --- | --- | --- |
| COc1ncc(-c2cc3c(C)nc(N)nc3n([C@H]3CC[C@H](OCCO)CC3)c2=O)cc1F | 8.84 | 8.28 |
| COc1ccc(-c2cc3c(C)nc(N)nc3n([C@H]3C[C@H](OCCO)C3)c2=O)cn1 | 7.99 | 7.29 |
| CNc1nc(C)c2cc(-c3ncccc3F)c(=O)n(C3CCCC3)c2n1 | 5.68 | 5.08 |
| CNc1nc(C)c2cc(-c3cnc4[nH]ccc4c3)c(=O)n(C3CCCC3)c2n1 | 9.12 | 8.42 |
| COc1ccc(-c2cc3c(C)nc(N)nc3n([C@H]3CC[C@H](OC[C@@H](O)CO)CC3)c2=O)cn1 | 8.17 | 7.88 |
| CNc1nc(C)c2cc(-c3ccc(OC)nc3)c(=O)n(C(C)C)c2n1 | 6.96 and 7.68 | 7.02 |
| Cc1nc(N)nc2c1cc(-c1cnc3[nH]ccc3c1)c(=O)n2CC1CCCO1 (stereo unspecified) | 8.27 | 7.44 |
| COc1ccc(-c2cc3c(C)nc(N)nc3n(CC(F)(F)F)c2=O)cn1 | 6.89 | 6.58 |
| CNc1nc(C)c2cc(-c3c[nH]c(C)n3)c(=O)n(C3CCCC3)c2n1 | 7.17 | 6.74 |
| Cc1nc(N)nc2c1cc(-c1cnc3[nH]ccc3c1)c(=O)n2C1CN(C(=O)OC(C)(C)C)C1 | 7.42 | 6.59 |
| Cc1nc(N)nc2c1cc(-c1cc[nH]n1)c(=O)n2[C@H]1CC[C@H](O)CC1 | 8.00 | 7.60 |
| COc1ccc(-c2cc3c(C)nc(N)nc3n(CC3CCOCC3)c2=O)cn1 | 7.82 | 7.05 |
| Cc1nc(N)nc2c1cc(-c1cnn(C)c1)c(=O)n2[C@H]1CC[C@H](O)CC1 | 7.74 | 6.32 |
| Cc1nc(N)nc2c1cc(-c1cncc(N)n1)c(=O)n2C1CCCC1 | 7.70 | 7.47 |
| Cc1nc(N)nc2c1cc(-c1cnc3[nH]ccc3c1)c(=O)n2[C@@H]1CC[C@@H](O)C1 | 8.92 | 7.25 |
| Cc1nc(N)nc2c1cc(-c1cnc(N)cn1)c(=O)n2C1CCCC1 | 7.82 | 7.75 |
| COc1ccc(-c2cc3c(C)nc(N)nc3n(CC(C)(C)F)c2=O)cn1 | 7.52 | 6.36 |
| Cc1nc(N)nc2c1cc(-c1ccc(Cl)nc1)c(=O)n2C1CCCC1 | 7.41 | 7.13 |

Reference: the Kinase Knowledgebase extract (Sharma et al. 2016)
